Key:
Assay type in all cases: physicochemical
[1] = two-photon absorption (TPA) cross-sections determined by two-photon excitation fluorescence (TPEF); conditions: for σ2, effective TPA cross-section at 700 nm / σ2, effective TPA cross-section at 990 nm / σ2, effective TPA cross-section at 750 nm: in toluene; for σ2, effective TPA cross-section at 700 nm / σ2, effective TPA cross-section at 990 nm: 10^−4 M
Method: The TPA spectra of the […] synthesized compounds (LP42, LP52, CL64, CL108, MC237 and MC263) as well as the reference boron dipyrromethene CL76 were also determined in the near-infrared ([…]) by studying their two-photon excitation fluorescence (TPEF), and are shown in FIG. 9.
The measurements were taken in toluene solutions of 10^−4 M, using a titanium-sapphire laser in locked mode generating pulses of ˜80 fs at 80 MHz.
The quadratic dependence of the fluorescence intensity with the excitation intensity was verified for each point of measurement. The calibration is done with respect to the effective TPEF cross-sections of the fluorescein in water (pH=11), which were determined absolutely in the former literature in the range of 690-1000 nm.
This method provides access to the effective TPEF cross-sections (σ2φ), from which the corresponding effective TPA cross-sections (σ2) are deduced. The data in the literature for compound PM556 are added for comparison.
(§1) Φ represents its fluorescence quantum efficiency, determined with respect to the fluorescein in NaOH 0.1N, σ2 represents its effective TPA cross-section (in GM, with 1 GM=10^−50 cm^4.s.photon^−1); the TPEF measurements were performed with a titanium-sapphire laser in locked mode generating pulses of ˜80 fs at 80 MHz, by calibrating with fluorescein),

[2] = absorption and photoluminescence characteristics (absorption and fluorescence emission spectra, quantum efficiency, lifetime); conditions: in toluene; for Φ, fluorescence quantum efficiency: determined with respect to fluorescein in NaOH 0.1N
Method: The absorption and photoluminescence characteristics of the 4 compounds of which the syntheses are described above were evaluated.
λabs represents the maximum absorption wavelength of the compound,
λem represents its maximum emission wavelength,
as §1
τ represents its fluorescence lifetime (also called the fluorescent decrease time).

water solubility = experiment: water solubility

effective TPA cross-section relative to model CL76 at 700 nm ([1]; ratio to CL76)	σ2, effective TPA cross-section at 700 nm [1]	σ2, effective TPA cross-section at 990 nm [1]	ε, molar extinction coefficient [2]	λabs, maximum absorption wavelength [2]	λem, maximum emission wavelength [2]	τ, fluorescence lifetime [2]	Φ, fluorescence quantum efficiency [2]	effective TPA cross-section relative to model CL76 at 750 nm ([1]; at 750 nm, ratio to CL76)	σ2, effective TPA cross-section at 750 nm ([1]; at 750 nm)	water solubility (water solubility)	Molecule	effective TPA cross-section relative to model CL76 at 990 nm ([1]; ratio to CL76)
9 times	190 GM	45 GM	221700 M⁻¹ cm⁻¹	528 nm	543 nm	4.02 ns	0.93				CCC1=C(C)C2=C(c3ccc(C#Cc4ccc(N(c5ccc(C#Cc6ccc(C7=C8C(C)=C(CC)C(C)=[N+]8[B-](F)(F)n8c(C)c(CC)c(C)c87)cc6)cc5)c5ccc(C#Cc6ccc(C7=C8C(C)=C(CC)C(C)=[N+]8[B-](F)(F)n8c(C)c(CC)c(C)c87)cc6)cc5)cc4)cc3)c3c(C)c(CC)c(C)n3[B-](F)(F)[N+]2=C1C [CL64]	
4 times	82 GM	75 GM	244300 M⁻¹ cm⁻¹	527 nm	542 nm	4.78 ns	0.69				CCC1=C(C)C2=C(c3ccc(-c4cc(-c5ccc(C6=C7C(C)=C(CC)C(C)=[N+]7[B-](F)(F)n7c(C)c(CC)c(C)c76)cc5)cc(-c5ccc(C6=C7C(C)=C(CC)C(C)=[N+]7[B-](F)(F)n7c(C)c(CC)c(C)c76)cc5)c4)cc3)c3c(C)c(CC)c(C)n3[B-](F)(F)[N+]2=C1C [LP52, hexafluoro[μ3-[2,2′2″-[1,3,5-benzenetriyltris[4,1-phenylene[[4-ethyl-3,5-dimethyl-2H-pyrrol-2-ylidene]methylene]]tris[4-ethyl-3,5-dimethyl-1H-pyrrolato]]]]triboron]	3.75 times
4 times	93 GM	34 GM	216400 M⁻¹ cm⁻¹	528 nm	544 nm	3.95 ns	0.89				CCC1=C(C)C2=C(c3ccc(C#Cc4ccc(-c5cc(-c6ccc(C#Cc7ccc(C8=C9C(C)=C(CC)C(C)=[N+]9[B-](F)(F)n9c(C)c(CC)c(C)c98)cc7)cc6)cc(-c6ccc(C#Cc7ccc(C8=C9C(C)=C(CC)C(C)=[N+]9[B-](F)(F)n9c(C)c(CC)c(C)c98)cc7)cc6)c5)cc4)cc3)c3c(C)c(CC)c(C)n3[B-](F)(F)[N+]2=C1C [MC237]	
	185 GM	40 GM	211100 M⁻¹ cm⁻¹	528 nm	542 nm	4.36 ns	1	18	270 GM		CCC1=C(C)C2=C(c3ccc(-c4cn(-c5ccc(C#Cc6ccc(N(c7ccc(C#Cc8ccc(-n9cc(-c%10ccc(C%11=C%12C(C)=C(CC)C(C)=[N+]%12[B-](F)(F)n%12c(C)c(CC)c(C)c%12%11)cc%10)nn9)cc8)cc7)c7ccc(C#Cc8ccc(-n9cc(-c%10ccc(C%11=C%12C(C)=C(CC)C(C)=[N+]%12[B-](F)(F)n%12c(C)c(CC)c(C)c%12%11)cc%10)nn9)cc8)cc7)cc6)cc5)nn4)cc3)c3c(C)c(CC)c(C)n3[B-](F)(F)[N+]2=C1C [MC263]	
										perfectly water-soluble	CC1=C(S(=O)(=O)[O-])C(C)=[N+]2C1=C(c1ccc(C#Cc3ccc(-c4cc(-c5ccc(C#Cc6ccc(C7=C8C(C)=C(S(=O)(=O)[O-])C(C)=[N+]8[B-](F)(F)n8c(C)c(S(=O)(=O)[O-])c(C)c87)cc6)cc5)cc(-c5ccc(C#Cc6ccc(C7=C8C(C)=C(S(=O)(=O)[O-])C(C)=[N+]8[B-](F)(F)n8c(C)c(S(=O)(=O)[O-])c(C)c87)cc6)cc5)c4)cc3)cc1)c1c(C)c(S(=O)(=O)[O-])c(C)n1[B-]2(F)F.[Na+].[Na+].[Na+].[Na+].[Na+].[Na+] [MC297]	
	20 GM	20 GM	76180 M⁻¹ cm⁻¹	527 nm	539 nm		0.75		15 GM		|4-ethyl-2-|(4-ethyl-3,5-dimethyl-2H-pyrrol-2-ylidene)phenyl methyl|-3,5-dimethyl-1H-pyrrolato|difluoroboron [CL76, reference compound]	

Molecule	effective TPA cross-section relative to model CL76 at 700 nm ([1]; ratio to CL76)	σ2, effective TPA cross-section at 700 nm [1]	σ2, effective TPA cross-section at 990 nm [1]	ε, molar extinction coefficient [2]	λabs, maximum absorption wavelength [2]	λem, maximum emission wavelength [2]	τ, fluorescence lifetime [2]	Φ, fluorescence quantum efficiency [2]	effective TPA cross-section relative to model CL76 at 750 nm ([1]; at 750 nm, ratio to CL76)	σ2, effective TPA cross-section at 750 nm ([1]; at 750 nm)	water solubility (water solubility)	effective TPA cross-section relative to model CL76 at 990 nm ([1]; ratio to CL76)
CCC1=C(C)C2=C(c3ccc(-c4ccc(C5=C6C(C)=C(CC)C(C)=[N+]6[B-](F)(F)n6c(C)c(CC)c(C)c65)cc4)cc3)c3c(C)c(CC)c(C)n3[B-](F)(F)[N+]2=C1C [LP42, tetrafluoro[1-[2,2′-[(1,1′-biphenyl)-4,4′-diylbis[[4-ethyl-3,5-dimethyl-2H-pyrrol-2-ylidene-]methylene]]bis[4-ethyl-3,5-dimethyl-1H-pyrrolato]]]diboron]	3 times	57 GM	48 GM	161900 M⁻¹ cm⁻¹	527 nm	542 nm	4.76 ns	0.72				2.5 times

Reference: patent US20090221819A1, “FLUORESCENT COMPOUNDS AND USE OF SAID COMPOUNDS IN MULTIPHOTON METHODS OR DEVICES” (priority 2005, published 2009)
